Calls of active or inactive are those of the source.

The target of experiment [1] is MAP/microtubule affinity-regulating kinase 3 (Homo sapiens, UniProt P27448). It counts as functional.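 Further: MARK3 affinity measured as one member of a kinome panel.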
A further experiment addresses Misshapen-like kinase 1 (Homo sapiens, UniProt Q8N4C8). It counts as functional.
The target of experiment [2] is Calcium/calmodulin-dependent protein kinase type II subunit gamma (Homo sapiens, UniProt Q13555). It counts as functional.
The target in experiment [3] is Serine/threonine-protein kinase D2 (Homo sapiens, UniProt Q9BZL6). The experiment is classed as functional.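 Further: measured against PRKD2 as one member of a kinome-wide kinase profiling panel.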
In experiment [4] the target is Maternal embryonic leucine zipper kinase (Homo sapiens, UniProt Q14680). The experiment is classed as functional.
The target of experiment [5] is Dual specificity tyrosine-phosphorylation-regulated kinase 4 (Homo sapiens, UniProt Q9NR20). It counts as functional.
Experiment [6] has as its target Protein kinase C delta type (Homo sapiens, UniProt Q05655). It counts as functional.
Experiment [7] has as its target Mitogen-activated protein kinase 9 (Homo sapiens, UniProt P45984). It counts as functional.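 Further: value from a kinome panel profiling assay, MAPK9 panel entry.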
In another experiment the target is Aurora kinase B (Homo sapiens, UniProt Q96GD4). It counts as functional.
Chain of Aurora kinase B (Q96GD4 whole entry): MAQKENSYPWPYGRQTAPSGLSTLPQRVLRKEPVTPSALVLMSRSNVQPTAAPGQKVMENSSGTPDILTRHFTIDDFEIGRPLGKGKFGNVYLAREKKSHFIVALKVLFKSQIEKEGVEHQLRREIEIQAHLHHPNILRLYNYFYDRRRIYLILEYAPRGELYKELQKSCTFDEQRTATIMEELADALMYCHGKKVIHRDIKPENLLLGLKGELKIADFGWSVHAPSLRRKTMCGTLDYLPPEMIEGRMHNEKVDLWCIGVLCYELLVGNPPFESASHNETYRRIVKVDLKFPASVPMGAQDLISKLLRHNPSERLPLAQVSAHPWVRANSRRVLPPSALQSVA
Experiment [8] addresses Testis-specific serine/threonine-protein kinase 1 (Homo sapiens, UniProt Q9BXA7). The experiment is classed as functional.
For experiment [9], the target named is Protein kinase C gamma type (Homo sapiens, UniProt P05129). The experiment is classed as functional.
For experiment [10], the target named is Protein-tyrosine kinase 6 (Homo sapiens, UniProt Q13882). The experiment is classed as functional.
Experiment [11] deals with Serine/threonine-protein kinase TAO1 (Homo sapiens, UniProt Q7L7X3). The experiment is classed as functional.
For experiment [12], the target named is Homeodomain-interacting protein kinase 4 (Homo sapiens, UniProt Q8NE63). The experiment is classed as functional.
Chain of Homeodomain-interacting protein kinase 4 (Q8NE63 whole entry): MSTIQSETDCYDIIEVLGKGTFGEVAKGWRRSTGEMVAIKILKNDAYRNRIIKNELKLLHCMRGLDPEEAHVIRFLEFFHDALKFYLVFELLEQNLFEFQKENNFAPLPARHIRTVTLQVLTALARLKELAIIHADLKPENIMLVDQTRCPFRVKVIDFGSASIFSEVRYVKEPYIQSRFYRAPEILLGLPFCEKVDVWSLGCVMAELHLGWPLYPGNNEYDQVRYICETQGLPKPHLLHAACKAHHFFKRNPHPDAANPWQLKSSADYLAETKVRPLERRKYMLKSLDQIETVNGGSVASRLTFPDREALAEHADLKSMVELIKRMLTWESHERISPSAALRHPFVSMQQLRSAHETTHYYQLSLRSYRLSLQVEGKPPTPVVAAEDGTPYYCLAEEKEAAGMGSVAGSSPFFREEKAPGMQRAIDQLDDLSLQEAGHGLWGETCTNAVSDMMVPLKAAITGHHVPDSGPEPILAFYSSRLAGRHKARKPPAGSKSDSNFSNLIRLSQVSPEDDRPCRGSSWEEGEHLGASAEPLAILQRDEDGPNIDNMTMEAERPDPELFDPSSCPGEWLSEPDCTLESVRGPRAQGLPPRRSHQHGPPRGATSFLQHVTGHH
Experiment [13] addresses Mitogen-activated protein kinase 12 (Homo sapiens, UniProt P53778). The experiment is classed as functional.
The target of experiment [14] is Serine/threonine-protein kinase Chk1 (Homo sapiens, UniProt O14757). It counts as functional.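 Further: measured as one member of a kinome-wide kinase profiling panel.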
Experiment [15] has as its target Serine/threonine-protein kinase pim-1 (Homo sapiens, UniProt P11309). It counts as functional.
The test system of experiment [16] is Streptococcus sp. 'group A'. Put plainly: growth inhibition of control SK(-) GAS strain, dose response, counter-screen for streptokinase expression inhibitor project, luminescence, kanamycin, BacTiterGlo, confirmation (AID 1900). The experiment is classed as functional, organism-based. On the technique in general: The purpose of a counterscreen is to sort out artefacts and off-target activity.

A further experiment concerns the target T1, Streptokinase A (Streptococcus pyogenes serotype M1, UniProt P10520).
T1 sequence (P10520 whole entry): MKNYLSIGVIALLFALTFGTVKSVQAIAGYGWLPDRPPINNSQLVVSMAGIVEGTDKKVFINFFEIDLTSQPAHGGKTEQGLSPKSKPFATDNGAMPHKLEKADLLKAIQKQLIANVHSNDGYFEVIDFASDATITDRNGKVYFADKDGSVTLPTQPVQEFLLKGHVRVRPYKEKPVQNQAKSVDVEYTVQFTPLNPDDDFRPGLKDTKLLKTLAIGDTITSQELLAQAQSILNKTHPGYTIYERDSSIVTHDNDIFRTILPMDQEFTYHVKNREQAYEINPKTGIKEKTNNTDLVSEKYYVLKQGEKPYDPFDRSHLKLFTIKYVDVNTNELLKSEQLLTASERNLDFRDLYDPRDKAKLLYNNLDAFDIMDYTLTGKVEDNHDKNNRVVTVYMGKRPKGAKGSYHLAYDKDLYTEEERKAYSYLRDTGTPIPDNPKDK
Put plainly: S. pyogenes streptokinase expression inhibitors, potency, dose response, plasminogen activation absorbance, OD405 (AID 1914).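 Further: secreted streptokinase activity via plasminogen activation per viability signal from cell pellet.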 The experiment is classed as functional, Streptococcus pyogenes M1 GAS.

Experiment [17] has as its target SWI/SNF-related matrix-associated actin-dependent regulator of chromatin subfamily A member 2 (Homo sapiens, UniProt P51531). Put plainly: Luminescence-based cell-based high throughput dose response assay to identify activators of the function of SWI/SNF related, matrix associated, actin dependent regulator of chromatin, subfamily a, member 2 (SMARCA2, BRM). The experiment is classed as functional.

Experiment [18] has as its target DNA dC->dU-editing enzyme APOBEC-3G (Homo sapiens, UniProt Q9HC16). Put plainly: Dose Response confirmation of small molecule APOBEC3G DNA Deaminase Inhibitors via a fluorescence-based single-stranded DNA deaminase assay. [Related pubchem assays (depositor defined):AID493012, AID493028]. The experiment is classed as functional.
The nature of experiment [19]: Counterscreen for AddAB inhibitors: absorbance-based bacterial cell-based high throughput dose response assay for inhibitors of bacterial viability. [Related pubchem assays (depositor defined):AID435030, AID449728, AID449731, AID488942, AID488955, AID488956]. It counts as functional.
The test system of experiment [20] is Jurkat. Put plainly: SAR Analysis of small molecule inhibitors of T-cell specific antigen receptor-induced NF-kB activation in a Jurkat cell line using a luminescence assay - Set 2. [Related pubchem assays (depositor defined):AID435003, AID435012, AID465]. Conditions: Homo sapiens. It counts as functional, cell-based.
The next experiment can be described thus: cells. The experiment is classed as functional, cell-based.
Another experiment concerns HEK293. Put plainly: cytotoxicity in HEK293T NF-kB-Luc cells, SAR follow-up, cytotoxicity control for NF-kB activator project, cell-based, resazurin fluorescence (AID 493251). It counts as functional. In general terms: The colour change of resazurin is a common sign of viable cells or microbes.
Another experiment has as its target T2, Bcl-2-like protein 10 (Homo sapiens, UniProt Q9HD36).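 Further: fluorescence polarization from a fluorescein-labelled TR3 peptide binding purified Bcl-B.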
T2 sequence (Q9HD36 whole entry): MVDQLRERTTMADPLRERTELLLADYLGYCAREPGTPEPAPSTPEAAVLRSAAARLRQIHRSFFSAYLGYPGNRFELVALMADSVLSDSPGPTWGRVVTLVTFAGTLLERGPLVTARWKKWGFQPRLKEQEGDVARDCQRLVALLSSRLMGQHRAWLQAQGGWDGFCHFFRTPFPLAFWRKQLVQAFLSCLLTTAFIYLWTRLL
Put plainly: displacers of TR3 peptide from Bcl-B, primary screen, selectivity assay for Bfl-1 inhibitor project, biochemical, fluorescence polarization, FITC-TR3 peptide (AID 748). (Polarisation of emitted light reports the rotation of a fluorescent probe.)

Another experiment deals with HeLa. Put plainly: HeLa cell cytotoxicity, dose response, cytotoxicity control, 24 h, cherry-picked samples (AID 504726).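 Further: potency for cytotoxicity as loss of luminescence signal.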 The experiment is classed as functional, cell-based. Conditions: Homo sapiens.
Experiment [21] deals with NACHT, LRR and PYD domains-containing protein 3 (Homo sapiens, UniProt Q96P20). Put plainly: NALP3 inhibitors in yeast, dose response, luminescent (AID 488799). It counts as functional.
Experiment [22] deals with Jurkat. Put plainly: SAR Analysis of small molecule inhibitors of T-cell specific antigen receptor-induced NF-kB activation in a Jurkat cell line using a luminescence assay. [Related pubchem assays (depositor defined):AID435003, AID435012, AID465]. The experiment is classed as functional, cell-based. Conditions: Homo sapiens.
Experiment [23] addresses ATP-dependent molecular chaperone HSP82 (Candida albicans (strain WO-1) (Yeast), UniProt C4YTQ8). Put plainly: loss of DOC-induced GRE-beta-galactosidase reporter signal, dose response, Hsp90 inhibitor project, S. cerevisiae, luminescence (AID 2400).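 Further: beta-galactosidase luminescence from glucocorticoid response element reporter as proxy for Hsp90 function; inhibitor potency where signal loss means Hsp90 inhibition.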 The experiment is classed as functional, cell-based.

Chain of Serine/threonine-protein kinase pim-1 (P11309 whole entry): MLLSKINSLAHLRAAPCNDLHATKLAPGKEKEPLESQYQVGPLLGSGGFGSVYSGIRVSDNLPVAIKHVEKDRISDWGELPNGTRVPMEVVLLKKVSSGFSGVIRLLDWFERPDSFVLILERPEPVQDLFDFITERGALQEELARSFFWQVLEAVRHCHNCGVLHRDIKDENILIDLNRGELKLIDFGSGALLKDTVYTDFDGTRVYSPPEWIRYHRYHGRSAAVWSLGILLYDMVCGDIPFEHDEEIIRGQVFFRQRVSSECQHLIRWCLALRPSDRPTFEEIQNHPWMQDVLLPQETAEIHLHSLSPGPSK
Chain of Misshapen-like kinase 1 (Q8N4C8 whole entry): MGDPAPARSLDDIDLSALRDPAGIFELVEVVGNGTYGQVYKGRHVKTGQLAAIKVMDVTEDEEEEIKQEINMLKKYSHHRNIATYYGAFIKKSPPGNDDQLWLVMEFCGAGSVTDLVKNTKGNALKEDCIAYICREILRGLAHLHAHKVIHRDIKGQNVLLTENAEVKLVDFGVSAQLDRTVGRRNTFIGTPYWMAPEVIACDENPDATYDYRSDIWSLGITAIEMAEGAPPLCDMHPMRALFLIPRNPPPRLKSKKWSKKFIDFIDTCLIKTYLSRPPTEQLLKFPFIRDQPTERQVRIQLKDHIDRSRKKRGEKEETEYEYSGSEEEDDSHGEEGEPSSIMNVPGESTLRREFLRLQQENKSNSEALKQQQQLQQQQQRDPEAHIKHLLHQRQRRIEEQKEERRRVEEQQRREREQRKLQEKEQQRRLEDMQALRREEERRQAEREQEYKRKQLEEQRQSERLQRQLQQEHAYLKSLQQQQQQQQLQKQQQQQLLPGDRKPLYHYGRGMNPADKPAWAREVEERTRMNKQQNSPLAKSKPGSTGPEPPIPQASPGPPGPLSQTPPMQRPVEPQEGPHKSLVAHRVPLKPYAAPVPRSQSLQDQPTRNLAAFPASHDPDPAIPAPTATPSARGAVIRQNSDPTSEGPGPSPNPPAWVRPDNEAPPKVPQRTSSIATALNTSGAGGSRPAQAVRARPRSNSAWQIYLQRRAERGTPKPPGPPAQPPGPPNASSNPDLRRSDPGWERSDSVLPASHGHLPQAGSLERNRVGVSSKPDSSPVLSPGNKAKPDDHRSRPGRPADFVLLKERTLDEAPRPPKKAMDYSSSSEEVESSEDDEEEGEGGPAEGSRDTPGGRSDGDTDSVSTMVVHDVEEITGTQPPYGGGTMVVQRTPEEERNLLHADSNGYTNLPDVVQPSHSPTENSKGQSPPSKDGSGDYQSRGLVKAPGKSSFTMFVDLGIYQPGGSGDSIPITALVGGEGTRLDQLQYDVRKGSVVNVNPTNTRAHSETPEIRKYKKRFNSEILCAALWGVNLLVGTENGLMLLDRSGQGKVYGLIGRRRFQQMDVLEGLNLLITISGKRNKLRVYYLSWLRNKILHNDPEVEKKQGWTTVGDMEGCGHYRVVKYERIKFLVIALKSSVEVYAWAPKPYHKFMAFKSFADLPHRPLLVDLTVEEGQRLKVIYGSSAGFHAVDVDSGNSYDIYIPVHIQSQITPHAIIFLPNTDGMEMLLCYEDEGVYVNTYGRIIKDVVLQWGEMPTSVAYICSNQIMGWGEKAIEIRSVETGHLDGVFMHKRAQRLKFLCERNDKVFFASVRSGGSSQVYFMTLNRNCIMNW
Chain of Mitogen-activated protein kinase 9 (P45984 whole entry): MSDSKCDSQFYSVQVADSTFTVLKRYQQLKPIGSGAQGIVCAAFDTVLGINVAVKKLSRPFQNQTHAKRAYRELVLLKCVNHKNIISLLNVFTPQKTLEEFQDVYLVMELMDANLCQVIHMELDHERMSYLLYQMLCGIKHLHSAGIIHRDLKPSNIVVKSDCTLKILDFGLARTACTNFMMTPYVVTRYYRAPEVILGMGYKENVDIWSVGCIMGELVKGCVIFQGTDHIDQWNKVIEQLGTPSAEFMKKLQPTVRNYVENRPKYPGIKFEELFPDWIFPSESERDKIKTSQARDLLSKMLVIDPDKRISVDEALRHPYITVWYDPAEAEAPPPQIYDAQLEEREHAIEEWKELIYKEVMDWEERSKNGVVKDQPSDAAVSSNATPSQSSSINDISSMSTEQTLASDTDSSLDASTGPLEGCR
Chain of Testis-specific serine/threonine-protein kinase 1 (Q9BXA7 whole entry): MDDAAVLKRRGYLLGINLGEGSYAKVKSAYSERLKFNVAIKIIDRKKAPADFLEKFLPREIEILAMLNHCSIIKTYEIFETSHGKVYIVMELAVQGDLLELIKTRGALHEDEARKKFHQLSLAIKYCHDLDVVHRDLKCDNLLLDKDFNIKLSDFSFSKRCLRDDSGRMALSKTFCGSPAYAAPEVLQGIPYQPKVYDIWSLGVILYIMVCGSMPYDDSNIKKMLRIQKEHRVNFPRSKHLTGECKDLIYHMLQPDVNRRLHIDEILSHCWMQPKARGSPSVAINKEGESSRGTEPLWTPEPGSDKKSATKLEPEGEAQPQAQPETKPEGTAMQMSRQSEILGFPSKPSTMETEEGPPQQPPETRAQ
Chain of SWI/SNF-related matrix-associated actin-dependent regulator of chromatin subfamily A member 2 (P51531 whole entry): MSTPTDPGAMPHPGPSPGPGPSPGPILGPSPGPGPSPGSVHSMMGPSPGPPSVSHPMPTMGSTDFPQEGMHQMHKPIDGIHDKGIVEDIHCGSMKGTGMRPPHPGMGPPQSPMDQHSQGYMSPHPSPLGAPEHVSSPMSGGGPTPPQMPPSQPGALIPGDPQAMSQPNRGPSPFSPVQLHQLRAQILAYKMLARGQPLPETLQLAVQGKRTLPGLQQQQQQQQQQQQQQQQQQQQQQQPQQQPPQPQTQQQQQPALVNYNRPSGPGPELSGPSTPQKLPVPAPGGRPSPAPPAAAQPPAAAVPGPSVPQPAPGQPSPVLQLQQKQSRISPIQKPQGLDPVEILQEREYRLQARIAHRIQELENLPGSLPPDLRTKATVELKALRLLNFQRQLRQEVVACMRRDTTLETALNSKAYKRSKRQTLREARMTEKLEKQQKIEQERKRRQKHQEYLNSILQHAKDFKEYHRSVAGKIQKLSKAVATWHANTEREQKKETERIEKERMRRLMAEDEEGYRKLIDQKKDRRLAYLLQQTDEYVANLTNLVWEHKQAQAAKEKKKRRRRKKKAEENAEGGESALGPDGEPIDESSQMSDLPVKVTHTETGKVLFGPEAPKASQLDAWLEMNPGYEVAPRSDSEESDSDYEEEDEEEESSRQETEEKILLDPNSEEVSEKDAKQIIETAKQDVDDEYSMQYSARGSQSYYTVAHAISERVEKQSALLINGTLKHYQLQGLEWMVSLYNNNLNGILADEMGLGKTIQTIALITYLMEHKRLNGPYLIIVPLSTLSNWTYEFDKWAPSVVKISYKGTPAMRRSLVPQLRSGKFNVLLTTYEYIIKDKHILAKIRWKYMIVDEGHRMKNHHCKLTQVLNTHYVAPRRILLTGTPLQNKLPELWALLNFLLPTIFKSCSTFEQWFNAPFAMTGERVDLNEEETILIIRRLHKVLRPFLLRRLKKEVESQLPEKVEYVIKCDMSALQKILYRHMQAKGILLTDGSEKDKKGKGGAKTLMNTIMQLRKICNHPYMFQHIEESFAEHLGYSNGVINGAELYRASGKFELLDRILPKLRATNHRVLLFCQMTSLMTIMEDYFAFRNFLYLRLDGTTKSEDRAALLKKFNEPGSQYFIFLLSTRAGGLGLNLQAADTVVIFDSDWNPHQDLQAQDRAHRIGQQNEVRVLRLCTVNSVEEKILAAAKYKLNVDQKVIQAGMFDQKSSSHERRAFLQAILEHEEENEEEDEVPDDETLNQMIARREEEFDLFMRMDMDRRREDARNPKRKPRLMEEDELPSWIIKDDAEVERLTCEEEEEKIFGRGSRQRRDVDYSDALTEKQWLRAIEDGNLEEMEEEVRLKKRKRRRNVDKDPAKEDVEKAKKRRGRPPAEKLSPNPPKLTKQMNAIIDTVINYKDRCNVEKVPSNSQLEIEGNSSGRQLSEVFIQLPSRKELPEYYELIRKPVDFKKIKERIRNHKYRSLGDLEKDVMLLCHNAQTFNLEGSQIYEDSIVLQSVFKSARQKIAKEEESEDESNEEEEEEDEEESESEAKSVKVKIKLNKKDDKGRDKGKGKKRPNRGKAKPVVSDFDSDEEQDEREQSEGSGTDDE

As to `Cc1cccc(NC(=O)Nc2ccc3c(c2)CCc2sc4ncnc(N)c4c2-3)c1`, the Ki (usually a dissociation constant, usually derived from enzyme kinetics or from competition with a known ligand) in [1] is 3.16 µM (active); on Misshapen-like kinase 1, > 7.94 µM (inactive); in experiment [2] it was > 6.31 µM (inactive); in [3], > 10 µM (inactive); in [4] it was 794 nM (active); in [5], 6.31 µM (active). In addition, the Ki in experiment [6] was 7.94 µM (active); in [7], > 3.98 µM (inactive); on Aurora kinase B, 31.6 nM (active); in [8], > 1.58 µM (inactive); in experiment [9], > 7.94 µM (inactive); in experiment [10], > 2.51 µM (inactive). For the same compound, the Ki was 3.98 µM (active) in experiment [11]; 79.4 nM (active) in experiment [12]; > 6.31 µM (inactive) in experiment [13]; > 7.94 µM (inactive) in experiment [14]; 3.98 µM (active) in experiment [15].

As to `Cc1ccc(-n2sc3ccccc3c2=O)cc1`, the results for the concentration giving a half-maximal response (EC50) (in [16]; at Streptokinase A; in experiment [17]) were 1.02 µM (active), > 150 µM (not active) and > 91.2 µM (inactive), respectively. Further, the IC50 – broadly, the concentration that inhibits the measured activity by half – in experiment [18] is 18.2 µM (active).

On to `CCC(=O)NC(c1ccc(C)cc1)c1ccc2cccnc2c1O` (configuration not stated), for which the IC50 in experiment [19] was > 119 µM (inactive); in the experiment with Jurkat [20] it was 3.26 µM (active); in the experiment on HEK293 (Homo sapiens, HEK293), 12.9 µM (active). For the same compound, the EC50 (commonly the concentration giving half of the maximal effect) in “cells” is 4.3 µM (active).

Regarding `N/C(=N\N=C/c1ccc(-c2ccc(O)c(C(=O)O)c2)o1)N[N+](=O)[O-]`, on Bcl-2-like protein 10, the IC50 is 2.82 µM (active). For the same compound, the AC50 (as a rule, the midpoint of the concentration-response curve, whichever way the signal moves) in the experiment on HeLa is 151 µM (active).

For `CC(=O)N(/N=C1\Sc2ccccc2C1=O)c1ccccc1C`, in [21], the IC50 was 8.34 µM (active).

As to `CCCC(=O)NC(c1ccc(Cl)cc1)c1ccc2cccnc2c1O` (configuration not stated), the IC50 was 4.13 µM (active) in the experiment with Jurkat [22]; > 119 µM (inactive) in experiment [19]; 2.84 µM (active) in the experiment with Jurkat [20]; 8.63 µM (active) with HEK293 (Homo sapiens, HEK293); 9.55 µM (active) in the experiment on HEK293 (hek293). The EC50 in [23] is > 160 µM (inactive); in experiment [16] it was 2.17 µM (active); on Streptokinase A, > 150 µM (not active); in the experiment “cells” it was 5.77 µM (active).

(Values after ChEMBL document CHEMBL1201862, “PubChem BioAssay data set” (2004).)
